Measurements reported in patent publication US9718804B2, “GSK-3 inhibitors” (BRISTOL-MYERS SQUIBB COMPANY, priority 2013, dated 2017).
Like-named read-outs stand apart in the source and are kept apart here.

Columns and labels:
GSK3α = GSK3α (Homo sapiens, UniProt P49840); experiment: GSK3α kinase assay (Caliper LabChip, fluoresceinated peptide substrate); assay type: biochemical
Procedure: (§1) The kinase assay was performed in V-bottom 384-well plates. […] The reaction was incubated at room temperature for 20 hours and terminated by adding 45 μl of 35 mM EDTA to each sample. The reaction mixture was analyzed on the Caliper LabChip3000 (Caliper, Hopkinton, Mass.) by electrophoretic separation of the unphosphorylated substrate and phosphorylated product. […] Compounds were dissolved at 10 mM in dimethylsulfoxide (DMSO) and evaluated at eleven concentrations. IC50 values were derived by non-linear regression analysis.

pTau = pTau assay (no method described); assay type: cell-based
GSK3β = GSK3β (Homo sapiens, UniProt P49841); experiment: GSK3β kinase assay (Caliper LabChip, fluoresceinated peptide substrate); assay type: biochemical
Procedure: as §1

[1] = first value of the cell, 250 pM enzyme, 20 uM ATP, 20 hours at room temperature, read-out: GSK3β/α (nM): GSK3β IC50
[2] = second value of the cell, 250 pM enzyme, 20 uM ATP, 20 hours at room temperature, read-out: GSK3β/α (nM): GSK3α IC50

Sequence of GSK3α (P49840 whole entry, species assumed): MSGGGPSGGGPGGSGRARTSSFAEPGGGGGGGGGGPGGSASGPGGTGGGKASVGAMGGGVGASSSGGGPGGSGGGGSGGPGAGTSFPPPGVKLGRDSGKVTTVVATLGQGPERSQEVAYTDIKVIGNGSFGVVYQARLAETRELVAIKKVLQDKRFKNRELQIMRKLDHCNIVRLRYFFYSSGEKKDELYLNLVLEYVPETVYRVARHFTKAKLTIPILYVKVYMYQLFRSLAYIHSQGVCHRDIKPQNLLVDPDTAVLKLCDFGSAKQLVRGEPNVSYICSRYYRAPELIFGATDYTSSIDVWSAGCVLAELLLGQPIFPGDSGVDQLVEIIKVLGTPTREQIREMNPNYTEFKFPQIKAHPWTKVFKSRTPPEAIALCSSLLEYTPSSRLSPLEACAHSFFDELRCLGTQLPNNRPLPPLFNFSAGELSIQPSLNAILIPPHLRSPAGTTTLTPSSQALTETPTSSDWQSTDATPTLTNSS
Sequence of GSK3β (P49841 whole entry, species assumed): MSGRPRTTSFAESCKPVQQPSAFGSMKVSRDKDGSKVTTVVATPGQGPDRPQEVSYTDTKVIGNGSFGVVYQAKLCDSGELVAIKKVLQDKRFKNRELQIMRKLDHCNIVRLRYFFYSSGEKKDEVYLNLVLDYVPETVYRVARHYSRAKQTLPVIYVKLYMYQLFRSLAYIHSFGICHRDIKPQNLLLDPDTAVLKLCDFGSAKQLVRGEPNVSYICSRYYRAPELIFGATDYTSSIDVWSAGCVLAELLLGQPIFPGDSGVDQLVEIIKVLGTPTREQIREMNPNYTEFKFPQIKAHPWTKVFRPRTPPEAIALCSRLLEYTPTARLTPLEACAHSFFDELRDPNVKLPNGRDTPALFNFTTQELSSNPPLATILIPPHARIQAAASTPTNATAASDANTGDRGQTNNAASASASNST

Compound	IC50 (GSK3α) [nM]	IC50 (pTau) [nM]	IC50 (GSK3β; [1]) [nM]	IC50 (GSK3α; [2]) [nM]	IC50 (GSK3β) [nM]
C[C@H]1COCCN1c1ccncc1NC(=O)c1ccnc(Nc2ccc(C(F)(F)F)cn2)c1 [Example 20, (S)—N-(4-(3-Methylmorpholino)pyridin-3-yl)-2-((5-(trifluoromethyl)pyridin-2-yl)amino)isonicotinamide]	0.09	0.66	0.1	–	–
C[C@@H]1COCCN1c1ccncc1NC(=O)c1ccnc(Nc2ccc(C(F)(F)F)cn2)c1 [Example 21, (R)—N-(4-(3-Methylmorpholino)pyridin-3-yl)-2-((5-(trifluoromethyl)pyridin-2-yl)amino)isonicotinamide]	0.28	9.1	0.7	–	–
CC1(C)CN(c2ccncc2NC(=O)c2ccnc(Nc3ccc(C(F)(F)F)cn3)c2)CCO1 [Example 22, N-(4-(2,2-Dimethylmorpholino)pyridin-3-yl)-2-((5-(trifluoromethyl)pyridin-2-yl)amino)isonicotinamide]	0.31	18	0.48	–	–
O=C(Nc1cnccc1N1CCCCC1)c1ccnc(Nc2ccc(C(F)(F)F)cn2)c1 [Example 23, N-(4-(Piperidin-1-yl)pyridin-3-yl)-2-((5-(trifluoromethyl)pyridin-2-yl)amino)isonicotinamide]	0.15	6.5	0.24	–	–
O=C(Nc1cnccc1N1CCC(F)(F)CC1)c1ccnc(Nc2ccc(C(F)(F)F)cn2)c1 [Example 24, N-(4-(4,4-Difluoropiperidin-1-yl)pyridin-3-yl)-2-((5-(trifluoromethyl)pyridin-2-yl)amino)isonicotinamide]	0.49	4.6	0.69	–	–
CC(C)(C)COc1ccncc1NC(=O)c1ccnc(Nc2ccc(C#N)cn2)c1 [Example 25, 2-((5-Cyanopyridin-2-yl)amino)-N-(4-(neopentyloxy)pyridin-3-yl)isonicotinamide]	2	30	4.3	–	–
Cc1ccncc1NC(=O)c1ccnc(Nc2ccc(C#N)cn2)c1 [Example 26, 2-((5-Cyanopyridin-2-yl)amino)-N-(4-methylpyridin-3-yl)isonicotinamide]	–	670	–	8.2	14
N#Cc1ccc(Nc2cc(C(=O)Nc3cnccc3N3CCCCC3)ccn2)nc1 [Example 27, 2-((5-Cyanopyridin-2-yl)amino)-N-(4-(piperidin-1-yl)pyridin-3-yl)isonicotinamide]	0.18	5.2	0.42	–	–
CC1(C)CN(c2ccncc2NC(=O)c2ccnc(Nc3ccc(C#N)cn3)c2)CCO1 [Example 28, 2-((5-Cyanopyridin-2-yl)amino)-N-(4-(2,2-dimethylmorpholino)pyridin-3-yl)isonicotinamide]	0.37	16	0.55	–	–
N#Cc1ccc(Nc2cc(C(=O)Nc3cnccc3OCC(F)(F)F)ccn2)nc1 [Example 29, 2-((5-Cyanopyridin-2-yl)amino)-N-(4-(2,2,2-trifluoroethoxy)pyridin-3-yl)isonicotinamide]	0.62	16	0.69	–	–
CN(C)S(=O)(=O)c1ccc(Nc2cc(C(=O)Nc3cnccc3OCC(F)(F)F)ccn2)nc1 [Example 30, 2-((5-(N,N-Dimethylsulfamoyl)pyridin-2-yl)amino)-N-(4-(2,2,2-trifluoroethoxy)pyridin-3-yl)isonicotinamide]	0.31	24	0.5	–	–
O=C(Nc1cnccc1OCC(F)(F)F)c1ccnc(Nc2ccc(Cl)cn2)c1 [Example 31, 2-((5-Chloropyridin-2-yl)amino)-N-(4-(2,2,2-trifluoroethoxy)pyridin-3-yl)isonicotinamide]	0.3	22	0.74	–	–
O=C(Nc1cnccc1C1=CCOCC1)c1ccnc(Nc2ccc(C(F)(F)F)cn2)c1 [Example 32, N-(4-(3,6-Dihydro-2H-pyran-4-yl)pyridin-3-yl)-2-((5-(trifluoromethyl)pyridin-2-yl)amino)isonicotinamide]	0.78	71	2.3	–	–
CC1(c2ccncc2NC(=O)c2ccnc(Nc3ccc(C(F)(F)F)cn3)c2)OCCO1 [Example 33, N-(4-(2-Methyl-1,3-dioxolan-2-yl)pyridin-3-yl)-2-((5-(trifluoromethyl)pyridin-2-yl)amino)isonicotinamide]	0.18	0.55	0.29	–	–
CC(O)c1ccncc1NC(=O)c1ccnc(Nc2ccc(C(F)(F)F)cn2)c1 (stereo not drawn) [Example 34, N-(4-(1-Hydroxyethyl)pyridin-3-yl)-2-((5-(trifluoromethyl)pyridin-2-yl)amino)isonicotinamide]	1.4	37	3.2	–	–
O=C(Nc1cnccc1C1CCOCC1)c1ccnc(Nc2ccc(C(F)(F)F)cn2)c1 [Example 35, N-(4-(Tetrahydro-2H-pyran-4-yl)pyridin-3-yl)-2-((5-(trifluoromethyl)pyridin-2-yl)amino)isonicotinamide]	–	760	–	8.7	16
O=C(Nc1cnccc1C1=CCCCC1)c1ccnc(Nc2ccc(C(F)(F)F)cn2)c1 [Example 36, N-(4-(Cyclohex-1-en-1-yl)pyridin-3-yl)-2-((5-(trifluoromethyl)pyridin-2-yl)amino)isonicotinamide]	1.4	130	2.9	–	–
CC(=O)c1ccncc1NC(=O)c1ccnc(Nc2ccc(C(F)(F)F)cn2)c1 [Example 37, N-(4-Acetylpyridin-3-yl)-2-((5-(trifluoromethyl)pyridin-2-yl)amino)isonicotinamide]	1.5	130	3.3	–	–
O=C(Nc1cnccc1C1(O)CCCCC1)c1ccnc(Nc2ccc(C(F)(F)F)cn2)c1 [Example 38, N-(4-(1-Hydroxycyclohexyl)pyridin-3-yl)-2-((5-(trifluoromethyl)pyridin-2-yl)amino)isonicotinamide]	0.71	8.8	1.1	–	–
O=C(Nc1cnccc1C1=CCCCO1)c1ccnc(Nc2ccc(C(F)(F)F)cn2)c1 [Example 39, N-(4-(3,4-Dihydro-2H-pyran-6-yl)pyridin-3-yl)-2-((5-(trifluoromethyl)pyridin-2-yl)amino)isonicotinamide]	0.93	140	1.2	–	–
O=C(Nc1cnccc1C1OCCO1)c1ccnc(Nc2ccc(C(F)(F)F)cn2)c1 [Example 40, N-(4-(1,3-Dioxolan-2-yl)pyridin-3-yl)-2-((5-(trifluoromethyl)pyridin-2-yl)amino)isonicotinamide]	46	3300	23	–	–
O=C(Nc1cnccc1OCC(F)F)c1ccnc(Nc2ccc(C(F)(F)F)cn2)c1 [Example 42, N-(4-(2,2-Difluoroethoxy)pyridin-3-yl)-2-((5-(trifluoromethyl)pyridin-2-yl)amino)isonicotinamide]	0.27	21	0.49	–	–
CC1(COc2ccncc2NC(=O)c2ccnc(Nc3ccc(C(F)(F)F)cn3)c2)CC1 [Example 44, N-(4-((1-Methylcyclopropyl)methoxy)pyridin-3-yl)-2-((5-(trifluoromethyl)pyridin-2-yl)amino)isonicotinamide]	0.33	52	1.4	–	–
O=C(Nc1cnccc1C1(F)COC1)c1ccnc(Nc2ccc(C(F)(F)F)cn2)c1 [Example 45, N-(4-(3-Fluorooxetan-3-yl)pyridin-3-yl)-2-((5-(trifluoromethyl)pyridin-2-yl)amino)isonicotinamide]	11	150	17	–	–
O=C(Nc1cnccc1OCCN1CCCC1)c1ccnc(Nc2ccc(C(F)(F)F)cn2)c1 [Example 46, N-(4-(2-(Pyrrolidin-1-yl)ethoxy)pyridin-3-yl)-2-((5-(trifluoromethyl)pyridin-2-yl)amino)isonicotinamide]	75	4300	150	–	–
O=C(Nc1cnccc1OCCN1CCOCC1)c1ccnc(Nc2ccc(C(F)(F)F)cn2)c1 [Example 47, N-(4-(2-Morpholinoethoxy)pyridin-3-yl)-2-((5-(trifluoromethyl)pyridin-2-yl)amino)isonicotinamide]	5.6	420	18	–	–
O=C(Nc1cnccc1-c1ccc(F)cc1)c1ccnc(Nc2cccc(Cl)n2)c1 [Example 48, 2-((6-Chloropyridin-2-yl)amino)-N-(4-(4-fluorophenyl)pyridin-3-yl)isonicotinamide]	1.9	270	2.9	–	–
O=C(Nc1cnccc1-c1ccccc1F)c1ccnc(Nc2ccc(C(F)(F)F)cn2)c1 [Example 49, N-(4-(2-Fluorophenyl)pyridin-3-yl)-2-((5-(trifluoromethyl)pyridin-2-yl)amino)isonicotinamide]	0.32	53	0.65	–	–
O=C(Nc1cnccc1-c1ccc(F)cc1)c1ccnc(Nc2ccc(C(F)(F)F)cn2)c1 [Example 50, N-(4-(4-Fluorophenyl)pyridin-3-yl)-2-((5-(trifluoromethyl)pyridin-2-yl)amino)isonicotinamide]	0.86	54	2.1	–	–
O=C(Nc1cnccc1-c1ccc(Cl)cc1)c1ccnc(Nc2ccc(C(F)(F)F)cn2)c1 [Example 51, N-(4-(4-Cholorophenyl)pyridin-3-yl)-2-((5-(trifluoromethyl)pyridin-2-yl)amino)isonicotinamide]	6.9	266	9.9	–	–
